Results from PubChem BioAssay (NCI).
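Each compound was tested at five concentrations against cells in 96-well plates for 48 hours. The concentration for 50% growth inhibition is given as GI50. The concentration for full growth arrest is given as TGI.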

Legend:
Assay in all cases: inhibition of tumour cell growth, NCI panel, 48 h
786-0 renal = test system: 786-0 renal
A498 renal = test system: A498 renal
A549 NSCLC = test system: A549 NSCLC
ACHN renal = test system: ACHN renal
BT-549 breast = test system: BT-549 breast
CAKI-1 renal = test system: CAKI-1 renal
CCRF-CEM leukemia = test system: CCRF-CEM leukemia
COLO 205 colon = test system: COLO 205 colon
DU-145 prostate = test system: DU-145 prostate
EKVX NSCLC = test system: EKVX NSCLC
HCC-2998 colon = test system: HCC-2998 colon
HCT-116 colon = test system: HCT-116 colon
HCT-15 colon = test system: HCT-15 colon
HL-60(TB) leukemia = test system: HL-60(TB) leukemia
HOP-62 NSCLC = test system: HOP-62 NSCLC
HOP-92 NSCLC = test system: HOP-92 NSCLC
HS 578T breast = test system: HS 578T breast
HT29 colon = test system: HT29 colon
IGROV1 ovarian = test system: IGROV1 ovarian
K-562 leukemia = test system: K-562 leukemia
KM12 colon = test system: KM12 colon
LOX IMVI melanoma = test system: LOX IMVI melanoma
M14 melanoma = test system: M14 melanoma
MALME-3M melanoma = test system: MALME-3M melanoma
MCF7 breast = test system: MCF7 breast
MDA-MB-231 breast = test system: MDA-MB-231 breast
MDA-MB-435 = test system: MDA-MB-435
MOLT-4 leukemia = test system: MOLT-4 leukemia
NCI-H226 lung = test system: NCI-H226 lung

In the case of `CCSC1=CC(=O)c2ccccc2C1=O`, the GI50 (786-0 renal) is reported as 9.25 µM, the TGI (786-0 renal) is reported as 22.3 µM and the GI50 (A498 renal) is reported as 16.4 µM. The TGI (A498 renal) was 41.2 µM, the GI50 (A549 NSCLC) was 19.9 µM and the TGI (A549 NSCLC) was 41.3 µM. The GI50 (ACHN renal) was 1.27 µM, the TGI (ACHN renal) was 2.65 µM and the GI50 (BT-549 breast) was 14.8 µM. For the same compound, the TGI (BT-549 breast) was 28.3 µM, the GI50 (CAKI-1 renal) was 1.96 µM and the TGI (CAKI-1 renal) was 5.5 µM. For the same compound, the GI50 (CCRF-CEM leukemia) was 0.374 µM, the GI50 (COLO 205 colon) was 2.33 µM and the TGI (COLO 205 colon) was 5.22 µM. The GI50 (DU-145 prostate) was 14.4 µM, the TGI (DU-145 prostate) was 27.8 µM and the GI50 (EKVX NSCLC) was 7.82 µM. The TGI (EKVX NSCLC) was 23.2 µM, the GI50 (HCC-2998 colon) was 17 µM and the TGI (HCC-2998 colon) was 31.8 µM. The GI50 (HCT-116 colon) was 1.48 µM, the TGI (HCT-116 colon) was 2.84 µM and the GI50 (HCT-15 colon) was 13.9 µM. It also gave a TGI (HCT-15 colon) of 31.4 µM, a GI50 (HL-60(TB) leukemia) of 0.389 µM and a TGI (HL-60(TB) leukemia) of 1.8 µM. The GI50 (HOP-62 NSCLC) was 15.3 µM, the TGI (HOP-62 NSCLC) was 28.7 µM and the GI50 (HOP-92 NSCLC) was 1.32 µM. For the same compound, the TGI (HOP-92 NSCLC) was 2.66 µM, the GI50 (HS 578T breast) was 13.8 µM and the TGI (HS 578T breast) was > 69.3 µM. For the same compound, the GI50 (HT29 colon) was 15.5 µM, the TGI (HT29 colon) was 34.7 µM and the GI50 (IGROV1 ovarian) was 4.86 µM. It also gave a TGI (IGROV1 ovarian) of 17.1 µM, a GI50 (K-562 leukemia) of 1.61 µM and a TGI (K-562 leukemia) of 4.52 µM. It also gave a GI50 (KM12 colon) of 11 µM, a TGI (KM12 colon) of 25.4 µM and a GI50 (LOX IMVI melanoma) of 2.55 µM. The TGI (LOX IMVI melanoma) was 8.89 µM, the GI50 (M14 melanoma) was 12.8 µM and the TGI (M14 melanoma) was 26 µM. The GI50 (MALME-3M melanoma) was 1.99 µM, the TGI (MALME-3M melanoma) was 5.34 µM and the GI50 (MCF7 breast) was 4.12 µM. It also gave a TGI (MCF7 breast) of 15.1 µM, a GI50 (MDA-MB-231 breast) of 0.759 µM and a TGI (MDA-MB-231 breast) of 3.3 µM. The GI50 (MDA-MB-435) was 2.69 µM, the TGI (MDA-MB-435) was 7.02 µM and the GI50 (MOLT-4 leukemia) was 0.744 µM. It also gave a TGI (MOLT-4 leukemia) of 2.39 µM, a GI50 (NCI-H226 lung) of 16.8 µM and a TGI (NCI-H226 lung) of 32.9 µM.
